Results from the NIST ThermoML archive (doi:10.1016/j.fluid.2015.03.048).
Numbers after ± are expanded uncertainties.

Experiment: xn = mol fraction of the nth substance listed
Conditions: 303.15 K, 100 kPa, Liquid; for viscosity: Capillary tube (Ostwald / Ubbelohde) method; for excess molar volume: Direct dilatometry; for speed of sound: Frequency=3 MHz, Sing-around technique in a fixed-path interferometer; for mass density: Pycnometric method

Cc1cccc([N+](=O)[O-])c1 [3-nitrotoluene] + CC(=O)N(C)C
viscosity (x2 = 0.0851): 1.76 ± 0.021 mPa·s | viscosity (x2 = 0.1552): 1.752 ± 0.021 mPa·s | viscosity (x2 = 0.242): 1.71 ± 0.02 mPa·s | viscosity (x2 = 0.2931): 1.686 ± 0.02 mPa·s | viscosity (x2 = 0.3451): 1.646 ± 0.02 mPa·s | viscosity (x2 = 0.4062): 1.603 ± 0.019 mPa·s | viscosity (x2 = 0.455): 1.568 ± 0.019 mPa·s | viscosity (x2 = 0.5191): 1.519 ± 0.018 mPa·s | viscosity (x2 = 0.5532): 1.492 ± 0.018 mPa·s | viscosity (x2 = 0.603): 1.451 ± 0.018 mPa·s | viscosity (x2 = 0.6512): 1.408 ± 0.017 mPa·s | viscosity (x2 = 0.7125): 1.348 ± 0.017 mPa·s | viscosity (x2 = 0.7561): 1.3 ± 0.016 mPa·s | viscosity (x2 = 0.8151): 1.224 ± 0.016 mPa·s | viscosity (x2 = 0.9727): 0.935 ± 0.013 mPa·s | excess molar volume (x2 = 0.0851): 1.8e-08 ± 6e-09 m3/mol | excess molar volume (x2 = 0.1552): 3e-08 ± 6e-09 m3/mol | excess molar volume (x2 = 0.242): 4.2e-08 ± 6e-09 m3/mol | excess molar volume (x2 = 0.2931): 4.9e-08 ± 6e-09 m3/mol | excess molar volume (x2 = 0.3451): 5.4e-08 ± 6e-09 m3/mol | excess molar volume (x2 = 0.4062): 5.9e-08 ± 6e-09 m3/mol | excess molar volume (x2 = 0.455): 6.2e-08 ± 6e-09 m3/mol | excess molar volume (x2 = 0.5191): 6.5e-08 ± 6e-09 m3/mol | excess molar volume (x2 = 0.5532): 6.6e-08 ± 6e-09 m3/mol | excess molar volume (x2 = 0.603): 6.6e-08 ± 6e-09 m3/mol | excess molar volume (x2 = 0.6512): 6.5e-08 ± 6e-09 m3/mol | excess molar volume (x2 = 0.7125): 6.3e-08 ± 6e-09 m3/mol | excess molar volume (x2 = 0.7561): 5.9e-08 ± 6e-09 m3/mol | excess molar volume (x2 = 0.8151): 5.1e-08 ± 6e-09 m3/mol | excess molar volume (x2 = 0.9727): 1.2e-08 ± 6e-09 m3/mol | speed of sound (x2 = 0.0678): 2077 ± 3 m/s | speed of sound (x2 = 0.1256): 2039 ± 3 m/s | speed of sound (x2 = 0.1998): 1958 ± 3 m/s | speed of sound (x2 = 0.2449): 1906 ± 3 m/s | speed of sound (x2 = 0.291): 1857 ± 3 m/s | speed of sound (x2 = 0.3485): 1802 ± 3 m/s | speed of sound (x2 = 0.395): 1763 ± 3 m/s | speed of sound (x2 = 0.4577): 1729 ± 3 m/s | speed of sound (x2 = 0.4919): 1699 ± 3 m/s | speed of sound (x2 = 0.5429): 1676 ± 3 m/s | speed of sound (x2 = 0.5935): 1656 ± 3 m/s | speed of sound (x2 = 0.6596): 1632 ± 3 m/s | speed of sound (x2 = 0.708): 1616 ± 3 m/s | speed of sound (x2 = 0.7751): 1589 ± 3 m/s | speed of sound (x2 = 0.9654): 1473 ± 3 m/s | mass density (x2 = 0.0678): 1133.63 ± 11 kg/m3 | mass density (x2 = 0.1256): 1121.68 ± 11 kg/m3 | mass density (x2 = 0.1998): 1106.36 ± 11 kg/m3 | mass density (x2 = 0.2449): 1097.04 ± 11 kg/m3 | mass density (x2 = 0.291): 1087.34 ± 11 kg/m3 | mass density (x2 = 0.3485): 1075.63 ± 11 kg/m3 | mass density (x2 = 0.395): 1066.03 ± 11 kg/m3 | mass density (x2 = 0.4577): 1053.07 ± 11 kg/m3 | mass density (x2 = 0.4919): 1046.01 ± 10 kg/m3 | mass density (x2 = 0.5429): 1035.49 ± 10 kg/m3 | mass density (x2 = 0.5935): 1025.05 ± 10 kg/m3 | mass density (x2 = 0.6596): 1011.39 ± 10 kg/m3 | mass density (x2 = 0.708): 1001.42 ± 10 kg/m3 | mass density (x2 = 0.7751): 987.57 ± 9.9 kg/m3 | mass density (x2 = 0.9654): 948.44 ± 9.5 kg/m3

Clc1ccccc1Cl [1,2-dichlorobenzene] + CC(=O)N(C)C
viscosity (x2 = 0.0805): 1.294 ± 0.016 mPa·s | viscosity (x2 = 0.1224): 1.29 ± 0.016 mPa·s | viscosity (x2 = 0.1605): 1.283 ± 0.016 mPa·s | viscosity (x2 = 0.2175): 1.277 ± 0.016 mPa·s | viscosity (x2 = 0.2611): 1.276 ± 0.016 mPa·s | viscosity (x2 = 0.3261): 1.261 ± 0.016 mPa·s | viscosity (x2 = 0.4319): 1.253 ± 0.016 mPa·s | viscosity (x2 = 0.4607): 1.24 ± 0.016 mPa·s | viscosity (x2 = 0.5105): 1.232 ± 0.016 mPa·s | viscosity (x2 = 0.6242): 1.225 ± 0.016 mPa·s | viscosity (x2 = 0.7019): 1.218 ± 0.015 mPa·s | viscosity (x2 = 0.7571): 1.211 ± 0.015 mPa·s | viscosity (x2 = 0.8105): 1.201 ± 0.015 mPa·s | viscosity (x2 = 0.8505): 1.112 ± 0.015 mPa·s | viscosity (x2 = 0.9321): 0.908 ± 0.013 mPa·s | excess molar volume (x2 = 0.0805): -3.6e-08 ± 6e-09 m3/mol | excess molar volume (x2 = 0.1224): -5e-08 ± 6e-09 m3/mol | excess molar volume (x2 = 0.1605): -6e-08 ± 6e-09 m3/mol | excess molar volume (x2 = 0.2175): -7.5e-08 ± 6e-09 m3/mol | excess molar volume (x2 = 0.2611): -8.4e-08 ± 6e-09 m3/mol | excess molar volume (x2 = 0.3261): -9.1e-08 ± 6e-09 m3/mol | excess molar volume (x2 = 0.4319): -9.2e-08 ± 6e-09 m3/mol | excess molar volume (x2 = 0.4607): -8.8e-08 ± 6e-09 m3/mol | excess molar volume (x2 = 0.5105): -8.1e-08 ± 6e-09 m3/mol | excess molar volume (x2 = 0.6242): -5.5e-08 ± 6e-09 m3/mol | excess molar volume (x2 = 0.7019): -3.4e-08 ± 6e-09 m3/mol | excess molar volume (x2 = 0.7571): -1.8e-08 ± 6e-09 m3/mol | excess molar volume (x2 = 0.8105): -5e-09 ± 6e-09 m3/mol | excess molar volume (x2 = 0.8505): 2e-09 ± 6e-09 m3/mol | excess molar volume (x2 = 0.9321): 7e-09 ± 6e-09 m3/mol | speed of sound (x2 = 0.0664): 1263 ± 3 m/s | speed of sound (x2 = 0.1017): 1276 ± 3 m/s | speed of sound (x2 = 0.1344): 1284 ± 3 m/s | speed of sound (x2 = 0.1841): 1298 ± 3 m/s | speed of sound (x2 = 0.2229): 1307 ± 3 m/s | speed of sound (x2 = 0.2821): 1319 ± 3 m/s | speed of sound (x2 = 0.4095): 1344 ± 3 m/s | speed of sound (x2 = 0.4585): 1353 ± 3 m/s | speed of sound (x2 = 0.5742): 1377 ± 3 m/s | speed of sound (x2 = 0.6565): 1393 ± 3 m/s | speed of sound (x2 = 0.7168): 1402 ± 3 m/s | speed of sound (x2 = 0.7764): 1413 ± 3 m/s | speed of sound (x2 = 0.822): 1419 ± 3 m/s | speed of sound (x2 = 0.9177): 1435 ± 3 m/s | mass density (x2 = 0.0664): 1275.7 ± 13 kg/m3 | mass density (x2 = 0.1017): 1263.13 ± 13 kg/m3 | mass density (x2 = 0.1344): 1251.49 ± 13 kg/m3 | mass density (x2 = 0.1841): 1233.77 ± 12 kg/m3 | mass density (x2 = 0.2229): 1219.92 ± 12 kg/m3 | mass density (x2 = 0.2821): 1198.76 ± 12 kg/m3 | mass density (x2 = 0.4095): 1152.99 ± 12 kg/m3 | mass density (x2 = 0.4585): 1135.37 ± 11 kg/m3 | mass density (x2 = 0.5742): 1093.68 ± 11 kg/m3 | mass density (x2 = 0.6565): 1064.03 ± 11 kg/m3 | mass density (x2 = 0.7168): 1042.36 ± 10 kg/m3 | mass density (x2 = 0.7764): 1020.96 ± 10 kg/m3 | mass density (x2 = 0.822): 1004.63 ± 10 kg/m3 | mass density (x2 = 0.9177): 970.54 ± 9.7 kg/m3

Cc1ccccc1Cl [2-chlorotoluene] + CC(=O)N(C)C
viscosity (x2 = 0.106): 0.884 ± 0.013 mPa·s | viscosity (x2 = 0.1231): 0.883 ± 0.013 mPa·s | viscosity (x2 = 0.1854): 0.882 ± 0.013 mPa·s | viscosity (x2 = 0.2241): 0.881 ± 0.013 mPa·s | viscosity (x2 = 0.2672): 0.88 ± 0.013 mPa·s | viscosity (x2 = 0.3057): 0.879 ± 0.013 mPa·s | viscosity (x2 = 0.3762): 0.878 ± 0.013 mPa·s | viscosity (x2 = 0.4095): 0.877 ± 0.013 mPa·s | viscosity (x2 = 0.5255): 0.876 ± 0.013 mPa·s | viscosity (x2 = 0.561): 0.875 ± 0.013 mPa·s | viscosity (x2 = 0.6052): 0.874 ± 0.013 mPa·s | viscosity (x2 = 0.7214): 0.873 ± 0.013 mPa·s | viscosity (x2 = 0.7712): 0.872 ± 0.013 mPa·s | viscosity (x2 = 0.8021): 0.871 ± 0.013 mPa·s | viscosity (x2 = 0.8795): 0.869 ± 0.013 mPa·s | excess molar volume (x2 = 0.106): -2e-08 ± 6e-09 m3/mol | excess molar volume (x2 = 0.1231): -2.2e-08 ± 6e-09 m3/mol | excess molar volume (x2 = 0.1854): -3e-08 ± 6e-09 m3/mol | excess molar volume (x2 = 0.2241): -3.5e-08 ± 6e-09 m3/mol | excess molar volume (x2 = 0.2672): -3.9e-08 ± 6e-09 m3/mol | excess molar volume (x2 = 0.3057): -4.3e-08 ± 6e-09 m3/mol | excess molar volume (x2 = 0.3762): -4.9e-08 ± 6e-09 m3/mol | excess molar volume (x2 = 0.4095): -5.1e-08 ± 6e-09 m3/mol | excess molar volume (x2 = 0.5255): -5.5e-08 ± 6e-09 m3/mol | excess molar volume (x2 = 0.561): -5.5e-08 ± 6e-09 m3/mol | excess molar volume (x2 = 0.6052): -5.2e-08 ± 6e-09 m3/mol | excess molar volume (x2 = 0.7214): -4.2e-08 ± 6e-09 m3/mol | excess molar volume (x2 = 0.7712): -3.6e-08 ± 6e-09 m3/mol | excess molar volume (x2 = 0.8021): -3.2e-08 ± 6e-09 m3/mol | excess molar volume (x2 = 0.8795): -2.3e-08 ± 6e-09 m3/mol | speed of sound (x2 = 0.1): 1305 ± 3 m/s | speed of sound (x2 = 0.1527): 1316 ± 3 m/s | speed of sound (x2 = 0.1862): 1322 ± 3 m/s | speed of sound (x2 = 0.2241): 1330 ± 3 m/s | speed of sound (x2 = 0.2585): 1337 ± 3 m/s | speed of sound (x2 = 0.3232): 1350 ± 3 m/s | speed of sound (x2 = 0.3545): 1356 ± 3 m/s | speed of sound (x2 = 0.4673): 1378 ± 3 m/s | speed of sound (x2 = 0.503): 1384 ± 3 m/s | speed of sound (x2 = 0.5483): 1391 ± 3 m/s | speed of sound (x2 = 0.6722): 1407 ± 3 m/s | speed of sound (x2 = 0.7275): 1415 ± 3 m/s | speed of sound (x2 = 0.7625): 1416 ± 3 m/s | speed of sound (x2 = 0.8525): 1428 ± 3 m/s | mass density (x2 = 0.1): 1059.98 ± 11 kg/m3 | mass density (x2 = 0.1527): 1053.19 ± 11 kg/m3 | mass density (x2 = 0.1862): 1048.87 ± 11 kg/m3 | mass density (x2 = 0.2241): 1043.95 ± 10 kg/m3 | mass density (x2 = 0.2585): 1039.48 ± 10 kg/m3 | mass density (x2 = 0.3232): 1031.07 ± 10 kg/m3 | mass density (x2 = 0.3545): 1026.99 ± 10 kg/m3 | mass density (x2 = 0.4673): 1012.24 ± 10 kg/m3 | mass density (x2 = 0.503): 1007.54 ± 10 kg/m3 | mass density (x2 = 0.5483): 1001.55 ± 10 kg/m3 | mass density (x2 = 0.6722): 985.14 ± 9.9 kg/m3 | mass density (x2 = 0.7275): 977.79 ± 9.8 kg/m3 | mass density (x2 = 0.7625): 973.13 ± 9.8 kg/m3 | mass density (x2 = 0.8525): 961.13 ± 9.6 kg/m3
